Source: PubChem BioAssay (NCI)
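Briefly, cells in 96-well plates were exposed to five compound concentrations for 48 h, and endpoints were estimated by linear interpolation. GI50 = concentration required for 50% inhibition of growth. TGI marks complete inhibition of growth.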

Key:
Assay in all cases: inhibition of tumour cell growth, NCI panel, 48 h
[1] = tested on: MDA-MB-435
[2] = tested on: HS 578T breast
[3] = tested on: M14 melanoma
[4] = tested on: RPMI-8226 leukemia
[5] = tested on: KM12 colon
[6] = tested on: SR leukemia
[7] = tested on: T-47D breast
[8] = tested on: K-562 leukemia
[9] = tested on: HCT-15 colon
[10] = tested on: OVCAR-3 ovarian
[11] = tested on: SF-268 CNS
[12] = tested on: HCC-2998 colon
[13] = tested on: IGROV1 ovarian
[14] = tested on: TK-10 renal
[15] = tested on: HT29 colon
[16] = tested on: HOP-92 NSCLC
[17] = tested on: NCI-H226 lung
[18] = tested on: A549 NSCLC
[19] = tested on: HCT-116 colon
[20] = tested on: SK-MEL-28 melanoma
[21] = tested on: NCI/ADR-RES ovarian
[22] = tested on: DU-145 prostate
[23] = tested on: HL-60(TB) leukemia
[24] = tested on: BT-549 breast
[25] = tested on: HOP-62 NSCLC
[26] = tested on: SF-539 CNS
[27] = tested on: MDA-MB-231 breast
[28] = tested on: OVCAR-5 ovarian
[29] = tested on: SNB-75 CNS

O=C(Nc1ccc(Cc2ccccc2)cc1)Nc1nn(C(=O)Nc2ccc(Cc3ccccc3)cc2)c2ccccc12
TGI [1]: > 100 µM | GI50 [2]: 74.2 µM | TGI [2]: > 100 µM | GI50 [3]: > 100 µM | TGI [3]: > 100 µM | GI50 [4]: > 100 µM | TGI [4]: > 100 µM | GI50 [5]: > 100 µM | TGI [5]: > 100 µM | GI50 [6]: 16.3 µM | TGI [6]: 35.8 µM | GI50 [7]: > 100 µM | TGI [7]: > 100 µM | GI50 [8]: 40.5 µM | TGI [8]: > 100 µM | GI50 [9]: > 100 µM | TGI [9]: > 100 µM | GI50 [10]: > 100 µM | TGI [10]: > 100 µM | GI50 [11]: 75.6 µM | TGI [11]: > 100 µM | GI50 [12]: > 100 µM | TGI [12]: > 100 µM | GI50 [13]: > 100 µM | TGI [13]: > 100 µM | GI50 [14]: > 100 µM | TGI [14]: > 100 µM | GI50 [15]: > 100 µM | TGI [15]: > 100 µM | GI50 [16]: 18 µM | TGI [16]: > 100 µM | GI50 [17]: > 100 µM | TGI [17]: > 100 µM | GI50 [18]: > 100 µM | TGI [18]: > 100 µM | GI50 [19]: > 100 µM | TGI [19]: > 100 µM | GI50 [20]: > 100 µM | TGI [20]: > 100 µM | GI50 [21]: > 100 µM | TGI [21]: > 100 µM | GI50 [22]: 80 µM | TGI [22]: > 100 µM | GI50 [23]: > 100 µM | TGI [23]: > 100 µM | GI50 [24]: > 100 µM | TGI [24]: > 100 µM | GI50 [25]: 59.7 µM | TGI [25]: > 100 µM | GI50 [26]: > 100 µM | TGI [26]: > 100 µM | GI50 [27]: 47.1 µM | TGI [27]: > 100 µM | GI50 [28]: > 100 µM | TGI [28]: > 100 µM | GI50 [29]: 33.8 µM | TGI [29]: > 100 µM
